Measured values published in patent US20100203576A1, “PROCESS FOR DETERMINATION OF MICROORGANISMS' RESISTANCE TO ANTIBIOTICS” (INTELLIGENCE ARTIFICIELLE APPLICATIONS, priority 2009, published 2010).

System: Escherichia coli
Assay: Antibiogram resistance of similar Escherichia coli strains recorded in the data base
Format: cell-based
Design: key to Resistance, MO list in data base 1 / Resistance, MO list in data base 2 / Resistance, MO list in data base 3 / Resistance, MO list in data base 4: R: significant resistance; I: average resistance; S: without resistance
Conditions: for Resistance of Escherichia coli species 1 to 4 (in words): Escherichia coli species 1 to 4, similar between 98.5 to 83.6% to the urine specimen strain; for Resistance, MO list in data base 1: Escherichia coli strain 1, similarity 98.5%; for Resistance, MO list in data base 2: Escherichia coli strain 2, similarity 97.8%; for Resistance, MO list in data base 3: Escherichia coli strain 3, similarity 84.2%; for Resistance, MO list in data base 4: Escherichia coli strain 4, similarity 83.6%

Compound | Resistance of Escherichia coli species 1 to 4 (in words) | Resistance, MO list in data base 1 | Resistance, MO list in data base 2 | Resistance, MO list in data base 3 | Resistance, MO list in data base 4
gentamicin | not resistant | S | S | S | S
CC(=O)OCC1=C(C(=O)O)N2C(=O)[C@@H](NC(=O)Cc3cccs3)[C@H]2SC1 [CEPHALOTIN, cefalotin] | resistant | R | R | R | R
CO/N=C(\C(=O)N[C@@H]1C(=O)N2C(C(=O)O)=C(CSc3nc(=O)c(O)nn3C)CS[C@H]12)c1csc(N)n1 [CETRIAXONE, cetriaxone] | not resistant | S | S | S | S
CC1(C)S[C@@H]2[C@H](NC(=O)[C@H](N)c3ccc(O)cc3)C(=O)N2[C@H]1C(=O)O [AMOXICILLIN, amoxicillin] | resistant | R | R | R | R
CCN1CCN(C(=O)N[C@@H](C(=O)N[C@@H]2C(=O)N3[C@@H]2SC(C)(C)[C@@H]3C(=O)O)c2ccccc2)C(=O)C1=O [PIPERACILLIN, piperacillin] | resistant | R | R | R | R
O=C(O)c1cn(C2CC2)c2cc(N3CCNCC3)c(F)cc2c1=O [CIPROFLOXACIN] | – | R | R | – | I
